# Assay results as given in patent EP4160211A1, “DETECTING THE EXPOSURE OF A SUBJECT TO A THYROID DISRUPTING CHEMICAL, EVEN BEFORE HYPOTHYROIDISM APPEARS” (Moreno Navarro, José Carlos, priority 2021, dated 2023).
# Where two headings read alike, the source gives them in different places.
# Assays:
# Dehal1 = target: T1, Dehal1 (Homo sapiens, UniProt Q6PHW0); test: In vitro Dehal1 inhibition assay (inhibition of 125I-MIT deiodination in homogenates of DEHAL1-transfected HEK293 cells); type: biochemical
# T1 construct: expressed in transfected cells; host or cells: HEK293
# T1 sequence (Q6PHW0 1-289): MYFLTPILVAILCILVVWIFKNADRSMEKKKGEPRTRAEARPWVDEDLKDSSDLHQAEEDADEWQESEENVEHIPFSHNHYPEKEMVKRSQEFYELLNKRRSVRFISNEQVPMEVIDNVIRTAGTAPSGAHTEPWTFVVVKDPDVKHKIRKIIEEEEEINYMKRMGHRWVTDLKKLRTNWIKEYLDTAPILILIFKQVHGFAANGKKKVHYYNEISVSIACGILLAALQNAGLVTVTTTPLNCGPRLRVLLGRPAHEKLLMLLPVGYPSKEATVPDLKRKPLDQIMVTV
# Protocol: Human embryonic kidney (HEK293) cells were grown in Dulbecco's modified Eagle medium (Gibco) supplemented with 10% fetal calf serum and 0.1 mM flavin mononucleotide (FMN, MP Biochemicals) in 6-well plates. At 50% confluency, cells were transfected with 1 µg of wild-type or mutant DEHAL1 plasmid or empty pcDNA3.1 plasmid, using Fugene6 (Roche). After 24 h incubation, cells were washed with 1 ml PBS and collected in 0.5 ml PED buffer (0.1 M phosphate, pH 7.2, 2 mM EDTA, 1 mM dithiothreitol) per well and kept on ice. Samples were sonicated twice for 10 sec using Soniprep150, frozen on dry ice-ethanol and stored at -80 °C. For experiments testing FMN-response, culture medium was supplemented with 0-2 mM FMN.
# The experiments follow described methods to determine the MIT deiodination capacity of Dehal1-transfected cells (8), adding the candidate chemicals to test their capacity to inhibit such reaction. Basically, labelled [^125I]MIT was prepared by radioiodination of L-tyrosine (Sigma-Aldrich) with ^125I - (specific activity: 15 Ci/mg, Amersham Biosciences) using the chloramine-T method and purified by chromatography on cation-exchange resin (Dowex 50WX2-200, Sigma-Aldrich). […] Incubations contained […] [^125I]MIT, 0.1 µM unlabeled MIT and 10-25 µg cell homogenate protein in a final volume of 0.1 ml PED buffer. Reactions were started by the addition of NADPH (final concentration 0.1 mM), and the mixtures were incubated for 60 min at 37°C. Reactions were stopped by the addition of 0.9 ml of 10% acetic acid on ice. Samples were applied to 2 ml Dowex 50WX2-200 columns, and successively eluted with 3x1 ml 10% acetic acid (containing eluted iodide), 1 ml water, and 4×1ml 1 M NH4OH (containing iodotyrosines). Radioactivity was measured in each fraction in a NE1600 gamma counter (NE Technologies) and percentage deiodination was calculated. Protein concentrations in cell homogenates were measured by Bradford's assay; iodotyrosine deiodinase activity was corrected for the slight 1251 - production in empty pcDNA3.1-transfected cell homogenates and expressed per mg protein.
# For the general screen of inhibition potential of each compound, 10 µM unlabeled chemicals tested (Sigma-Aldrich) were added to the incubation mixture together with […] unlabeled MIT with no further modifications on the protocol above. Said chemical tested were: Tetrabromobisphenol A (TBBPA), Bisphenol A (BPA), Pentachlorophenol (PCP), tetraiodophenol (TIP), Tetrabromophenol (TBP), tetrachlorophenol (TCP), tetraafluorophenol (TFP), Di-iodo-nitro-Pheol (DINP), Di-chloro-nitrophenol (DCNP), Dibromophenol (DBP), Diclorophenol (DCP), iodophenol (IP), Bromophenol (BP), Fluorophenol (FP), phenol (P), Tyrosien(Tyr), mononitrotyrosine (MNT), monochlorotyrosine (MCT), Monoiodotyrosine (MIT), Diiodotyrosine (DIT). As negative controls: empty pcDNA-transfected cells, DMSO, NaOH and Buffer.
# Crude deiodination capacity obtained in individual chemical-containing mixture was calculated, including the vehicle (DMSO)-containing mixture. Percentage inhibition of each compound was determined with respect to the vehicle containing mixture. For inhibition curves of particular compounds, equimolar concentrations of unlabeled MIT (0, 0.1, 1, 10, 100 µM) and BPA, TBBPA, PCP and MNT were used, and % inhibition of individual compounds was calculated as above.
# thyroid hormone axis = test: In vivo administration to mice: hormonal and biochemical effects in plasma and urine; details: for UIC / UIC % variation: urine
# Protocol: Mice. Female wild type mice from C57BI/6 J strain were purchased from Charles River company. Animals were maintained under standard conditions of temperature (22-24°C), humidity (40-50%), 12-12 hours of dark/light cycle, water and rodent diet ad libitum. Five months old female mice were acclimatized prior to the experiment and handled based on animal bioethical protocols. The experimental procedures were approved by the Research Ethical Committee of the Autonomous University of Madrid and the competent department of Comunidad de Madrid. Tetrabromobisphenol A powder (TBBPA, 97% purity) obtained through Sigma-Aldrich was dissolved in a vehicle containing 25% ethanol and 75% of peanut oil. A TBBPA dose of 500 mg/kg of body weight was injected subcutaneously for 7 days. Blood and urine collection were performed at the end of the experiment (Fig. 1).
# Blood, urine and tissue collection. At day 7, blood was collected from cardiac puncture in heparinized tubes and centrifuged (2000 g for 10 minutes) to isolate plasma. Urine was collected using hydrophobic sand (Coastline Global, USA). Samples were kept at -20°C until used. For tissue isolation, mice were kept under deep anesthesia (Sevorane) and euthanized by cervical dislocation.
# Previously published methods were modified to allow the simultaneous quantification of MIT, DIT, T3, T4.
# Sample preparation: 100 µL of urine/plasma were added with suitable amounts of stable isotope-labeled internal standards (5.4 pmol 13C9-MIT, 4.0 pmol 13C9-DIT, 2.8 pmol 13C6-T3, 2.4 pmol 13C6-T4), vortexed, stored 30 min at room temperature to equilibrate, and deproteinized with the addition of 300µL of cold-acetone and the storage at 4°C for 30 min. After centrifugation at 22780 × g for 10 min, supernatants were dried at 40 °C under a gentle stream of nitrogen, derivatized with 200 µL of 3.0 N hydrochloric acid in n-butanol and incubated for 45 min at 60 °C, for the formation of the corresponding butyl esters of tyrosines, thyroid hormones, and their internal standards. After further evaporation to dryness, the sample was reconstituted with 500 µL of 0,1 M potassium buffer (pH=4) and loaded onto Agilent (Santa Clara, CA, USA) Bond-Elut Certify 130 mg SPE cartridges, to perform the extraction according to the procedure described by Saba et al.. The eluate was dried once again under nitrogen, the dried residue was reconstituted with 100 µL of acetonitrile/0.1 M hydrochloric acid (50/50 by volume), and 1µL of it was injected into the HPLC-MS-MS system. Calibration curves ranged from 0.1 to 100.0 ng/mL and were daily prepared by serial dilution in methanol and derivatized with samples.
# Instrument layout: AB-Sciex (Concord, Ontario, Canada) QTRAP 6500+ triple quadrupole mass spectrometer with ESI source, coupled to an Agilent (Santa Clara, CA, USA) 1290 UHPLC system, fitted with a 110 Å, 2x50 mm, 3µm particle size, Gemini C18 column (Phenomenex, Torrance, CA).
# Operative conditions: the chromatographic separation was carried out at 400 µL/min as a flow rate, using methanol/acetonitrile (20/80, by volume) added with 0.1% formic acid (solvent A) and water containing 0.1% formic acid (solvent B). The elution gradient was the following: 95 % solvent B from 0 to 3 min; 35 % solvent B from 3 to 8.5 min; 0 % solvent B from 8.5 to 9 min; 0 % solvent B from 9 to 11 min; 95 % solvent B from 11 to 14 min (equilibration step). […] Three transitions were used to monitor each compound and internal standard: that one with the highest signal/noise ratio was used as a quantifier (Q), while the other two as qualifiers (q).
# [1] = dose-response inhibition assay, 0-100 µM
# [2] = general screen, compound at 10 µM
# [3] = MNT 1mg/Kg b.w./day, for 7 days
# [4] = vs WT, MNT 1mg/Kg b.w./day, for 7 days
# [5] = read-out: inhibition of Dehal1 activity
# [6] = TBBPA 500 mg/kg b.w/day subcutaneously for 7 days
# [7] = TBBPA 500 mg/kg b.w/day subcutaneously for 7 days, plasma
# [8] = vs WT, TBBPA 500 mg/kg b.w/day for 7 days
# [9] = vs WT, TBBPA 500 mg/kg b.w/day for 7 days, plasma
compound,measurement,setting,value
"CC(C)(c1ccc(O)cc1)c1ccc(O)cc1 [BPA, Bisphenol A, reference compound]",inhibition capacity,Dehal1; [1],no inhibition capacity
"N[C@@H](Cc1cc(I)c(O)c(I)c1)C(=O)O [DIT, Diiodotyrosine, reference compound]",inhibition of labeled-MIT deiodination,Dehal1; [2],maximal inhibition
"N[C@@H](Cc1ccc(O)c(I)c1)C(=O)O [MIT, Monoiodotyrosine, reference compound]",inhibition of labeled-MIT deiodination,Dehal1; [2],maximal inhibition
"N[C@@H](Cc1ccc(O)c([N+](=O)[O-])c1)C(=O)O [MNT, 3-L-nitrotyrosine, reference compound]",DIT-urine,thyroid hormone axis; [3],0.29 ± 0.06 ng/mL
same,MIT-urine,thyroid hormone axis; [3],1.94 ± 0.13 ng/mL
same,MIT/DIT urine,thyroid hormone axis; [3],"6,69"
same,T3,thyroid hormone axis; [3],0.27 ± 0.02 ng/mL
same,T4,thyroid hormone axis; [3],25.35 ± 1.2 ng/mL
same,TSH,thyroid hormone axis; [3],1.07 ± 0.07 mU/L
same,UIC,thyroid hormone axis; [3],198 ± 14.43 µg/L
same,DIT-urine % variation,thyroid hormone axis; [4],-19%
same,MIT-urine % variation,thyroid hormone axis; [4],+46%
same,MIT/DIT urine % variation,thyroid hormone axis; [4],+80%
same,T3 % variation,thyroid hormone axis; [4],-5%
same,T4 % variation,thyroid hormone axis; [4],+8%
same,TSH % variation,thyroid hormone axis; [4],+7%
same,UIC % variation,thyroid hormone axis; [4],+47%
same,IC50,Dehal1; [1],< 0.01 µM
same,inhibition of labeled-MIT deiodination,Dehal1; [2],maximal inhibition
"Oc1c(Cl)c(Cl)c(Cl)c(Cl)c1Cl [PCP, Pentachlorophenol]",IC50,Dehal1; [1],~25 µM
same,inhibition at 10 µM,Dehal1; [5],22%
same,inhibition at 100 µM,Dehal1; [5],78%
same,inhibition at 10 µM,Dehal1; read-out: inhibition of labeled-MIT deiodination,55%
"CC(C)(c1cc(Br)c(O)c(Br)c1)c1cc(Br)c(O)c(Br)c1 [TBBPA, Tetrabromobisphenol A]",T3,"thyroid hormone axis; TBBPA 500 mg/kg b.w/day for 7 days, plasma",remained unchanged
same,DIT-plasma,thyroid hormone axis; [6],0.06 ± 0.01 ng/mL
same,DIT-urine,thyroid hormone axis; [6],0.23 ± 0.04 ng/mL
same,MIT-plasma,thyroid hormone axis; [6],0.21 ± 0.01 ng/mL
same,MIT-urine,thyroid hormone axis; [6],2.53 ± 0.11 ng/mL
same,MIT/DIT plasma,thyroid hormone axis; [6],"3,5"
same,MIT/DIT urine,thyroid hormone axis; [6],11
same,T4,thyroid hormone axis; [7],14.45 ± 1.65 ng/mL
same,TSH,thyroid hormone axis; [7],1.3 ± 0.025 mU/L
same,UIC,thyroid hormone axis; [6],170.6 ± 13.9 µg/L
same,DIT-plasma % variation,thyroid hormone axis; [8],-62%
same,DIT-urine % variation,thyroid hormone axis; [8],-36%
same,MIT-urine % variation,thyroid hormone axis; [8],+73%
same,MIT/DIT plasma % variation,thyroid hormone axis; [8],+250%
same,MIT/DIT urine % variation,thyroid hormone axis; [8],+172%
same,T4 % variation,thyroid hormone axis; [9],-38%
same,TSH % variation,thyroid hormone axis; [9],+23%
same,UIC % variation,thyroid hormone axis; [8],+127%
same,IC50,Dehal1; [1],~25 µM
same,inhibition at 10 µM,"Dehal1; dose-response inhibition assay, 10 µM, read-out: inhibition of Dehal1 activity",18%
same,inhibition at 100 µM,"Dehal1; dose-response inhibition assay, 100 µM, read-out: inhibition of Dehal1 activity",78%
same,inhibition at 10 µM,"Dehal1; general screen, compound at 10 µM, read-out: inhibition of labeled-MIT deiodination",37%
